According to the NIST ThermoML archive (doi:10.1021/je100765j):
Numbers after ± are expanded uncertainties.

Test: xn = mol fraction of the nth substance listed
Conditions: 101 kPa, Liquid; for speed of sound: Sing-around technique in a fixed-path interferometer

CCC(C)Cl (configuration not stated) [2-chlorobutane] + CC(C)OC(C)C
Conditions	mass density, 283.15 K [kg/m3]	mass density, 288.15 K [kg/m3]	mass density, 293.15 K [kg/m3]	speed of sound, 283.15 K [m/s]	speed of sound, 288.15 K [m/s]	speed of sound, 293.15 K [m/s]	speed of sound, 298.15 K [m/s]
x1 = 0.0519	740.159 ± 0.91	734.981 ± 0.92	729.792 ± 0.93	1068.8 ± 1.1	1046.5 ± 1.1	1024 ± 1.1	1001.8 ± 1.1
x1 = 0.0988	745.897 ± 0.89	740.712 ± 0.9	735.485 ± 0.92	1071.7 ± 1.1	1049.4 ± 1.1	1027.1 ± 1.1	1004.9 ± 1.1
x1 = 0.2006	758.792 ± 0.87	753.569 ± 0.88	748.303 ± 0.89	1078 ± 1.1	1055.8 ± 1.1	1033.7 ± 1.1	1011.5 ± 1.1
x1 = 0.3211	774.756 ± 0.83	769.483 ± 0.85	764.161 ± 0.86	1085.4 ± 1.1	1063.4 ± 1.1	1041.4 ± 1.1	1019.4 ± 1.1
x1 = 0.4201	788.575 ± 0.81	783.251 ± 0.82	777.889 ± 0.83	1091.5 ± 1.1	1069.7 ± 1.1	1047.9 ± 1.1	1026.1 ± 1.1
x1 = 0.532	804.971 ± 0.77	799.602 ± 0.79	794.197 ± 0.8	1098.5 ± 1.2	1076.9 ± 1.1	1055.3 ± 1.1	1033.8 ± 1.1
x1 = 0.6244	819.223 ± 0.75	813.814 ± 0.76	808.369 ± 0.77	1104.3 ± 1.2	1082.9 ± 1.1	1061.5 ± 1.1	1040.2 ± 1.1
x1 = 0.726	835.602 ± 0.71	830.144 ± 0.72	824.657 ± 0.73	1110.7 ± 1.2	1089.5 ± 1.1	1068.3 ± 1.1	1047.2 ± 1.1
x1 = 0.8163	850.907 ± 0.68	845.414 ± 0.69	839.877 ± 0.7	1116.3 ± 1.2	1095.4 ± 1.2	1074.4 ± 1.1	1053.5 ± 1.1
x1 = 0.8817	862.411 ± 0.66	856.901 ± 0.67	851.332 ± 0.68	1120.4 ± 1.2	1099.6 ± 1.2	1078.7 ± 1.1	1057.9 ± 1.1
x1 = 0.9634	877.39 ± 0.63	871.819 ± 0.64	866.214 ± 0.65	1125.5 ± 1.2	1104.9 ± 1.2	1084.3 ± 1.1	1063.7 ± 1.1
